{"source": "patent US20240216444A1", "about": "“DESIGNED BACTERIAL COMPOSITIONS” (Seres Therapeutics, Inc., priority 2015, published 2024)", "key": {"[1]": {"system": "7α-dehydroxylation of cholic acid and chenodeoxycholic acid", "assay": "LC-MS screen for 7α-dehydroxylation (7α-OH) activity", "assay_type": "biochemical"}, "[2]": {"system": "HSDH activity (7-, 3- or 12-hydroxyl groups) on cholic, chenodeoxycholic, deoxycholic and lithocholic acid", "assay": "LC-MS screen for hydroxysteroid dehydrogenase (HSDH) activity", "assay_type": "biochemical", "conditions": "for HSDH 7a: 7a-HSDH"}, "[3]": {"system": "bile salt hydrolase (BSH) activity on conjugated bile acids", "assay": "LC-MS screen for bile salt hydrolase (BSH) activity", "conditions": "for BSH gCA: substrate gCA; for BSH gCDCA: substrate gCDCA; for BSH t-aMCA: substrate t-aMCA; for BSH t-bMCA: substrate t-bMCA; for BSH tCA: substrate tCA; for BSH tCDCA: substrate tCDCA", "description": "To conduct the assay, briefly, bacteria were grown on permissive agar media plates for 24 to 48 hours to generate sufficient biomass to carry out assays. The bacterial lawns were resuspended in PBS to create a homogenous suspension that was then used for the BSH assay. To assay for BSH activity, bacterial suspensions were incubated with two separate mixtures of four distinct conjugated bile acids, each at concentration of 150 μg/ml, for 4 hours at 37° C. under anaerobic conditions. The reaction mixture was then extracted with an equal volume of acetonitrile, spun down to pellet bacteria and the supernatant filtered through a 0.2 μM filter to generate a sample for LC-MS analysis. Bile acids were determined using an Agilent 1260 HPLC coupled to a Bruker Compact qTOF MS. Samples were run on a bidentate C18 column using an acetonitrile:water buffer system to separate bile acids which were then ionized in negative mode and identified using a qTOF-MS. BSH activity was determined by the formation of deconjugated bile acid products that were verified by comparison to known standards and quantified, if necessary, using standard curves."}, "[4]": {"conditions": "LC-MS, substrate chenodeoxycholic acid"}}, "note": "Like-named read-outs stand apart in the source and are kept apart here.", "data": [{"substance": "Blautia_producta", "values": [{"measurement": "7a Dehydrox CDCA", "setting": "[1]; [4]", "value": "−"}, {"measurement": "7a Dehydrox CA", "setting": "[1]; LC-MS, substrate cholic acid", "value": "−"}, {"measurement": "HSDH 3a", "setting": "[2]; LC-MS, 3a-HSDH", "value": "−"}, {"measurement": "HSDH 7a", "setting": "[2]; LC-MS", "value": "−"}, {"measurement": "HSDH 12a", "setting": "[2]; LC-MS, 12a-HSDH", "value": "−"}]}, {"substance": "Clostridium butyricum", "values": [{"measurement": "7a Dehydrox CA", "setting": "[1]", "value": "−"}, {"measurement": "7a Dehydrox CDCA", "setting": "[1]", "value": "−"}, {"measurement": "HSDH 3a", "setting": "[2]", "value": "−"}, {"measurement": "HSDH 12a", "setting": "[2]", "value": "−"}]}, {"substance": "Clostridium paraputrificum", "values": [{"measurement": "BSH gCA", "setting": "[3]", "value": "+ (‘+’ indicates greater than 50-fold increase in levels of product bile acid, suggesting strong activity)"}, {"measurement": "BSH gCDCA", "setting": "[3]", "value": "+ (‘+’ indicates greater than 50-fold increase in levels of product bile acid, suggesting strong activity)"}, {"measurement": "BSH t-aMCA", "setting": "[3]", "value": "+ (‘+’ indicates greater than 50-fold increase in levels of product bile acid, suggesting strong activity)"}, {"measurement": "BSH t-bMCA", "setting": "[3]", "value": "+ (‘+’ indicates greater than 50-fold increase in levels of product bile acid, suggesting strong activity)"}, {"measurement": "BSH tCA", "setting": "[3]", "value": "+ (‘+’ indicates greater than 50-fold increase in levels of product bile acid, suggesting strong activity)"}, {"measurement": "BSH tCDCA", "setting": "[3]", "value": "+ (‘+’ indicates greater than 50-fold increase in levels of product bile acid, suggesting strong activity)"}]}, {"substance": "Clostridium sp_7_2_43FAA", "values": [{"measurement": "7a Dehydrox CDCA", "setting": "[1]; [4]", "value": "−"}, {"measurement": "7a Dehydrox CA", "setting": "[1]; LC-MS, substrate cholic acid", "value": "−"}, {"measurement": "HSDH 3a", "setting": "[2]; LC-MS, 3a-HSDH", "value": "+/− (‘+/−’ indicates ≤50-fold change in product bile acid levels, suggesting weak activity)"}, {"measurement": "HSDH 7a", "setting": "[2]; LC-MS", "value": "+ (‘+’ indicates greater than 50-fold increase in levels of product bile acid, suggesting strong activity)"}, {"measurement": "HSDH 12a", "setting": "[2]; LC-MS, 12a-HSDH", "value": "−"}]}, {"substance": "Clostridium symbiosum", "values": [{"measurement": "BSH gCA", "setting": "[3]", "value": "+/− (‘+/−’ indicates ≤50-fold change in product bile acid levels, suggesting weak activity)"}, {"measurement": "BSH gCDCA", "setting": "[3]", "value": "+ (‘+’ indicates greater than 50-fold increase in levels of product bile acid, suggesting strong activity)"}, {"measurement": "BSH t-aMCA", "setting": "[3]", "value": "−"}, {"measurement": "BSH t-bMCA", "setting": "[3]", "value": "−"}, {"measurement": "BSH tCA", "setting": "[3]", "value": "−"}, {"measurement": "BSH tCDCA", "setting": "[3]", "value": "+/− (‘+/−’ indicates ≤50-fold change in product bile acid levels, suggesting weak activity)"}, {"measurement": "7a Dehydrox CDCA", "setting": "[1]; [4]", "value": "−"}, {"measurement": "7a Dehydrox CA", "setting": "[1]; LC-MS, substrate cholic acid", "value": "−"}, {"measurement": "HSDH 3a", "setting": "[2]; LC-MS, 3a-HSDH", "value": "+/− (‘+/−’ indicates ≤50-fold change in product bile acid levels, suggesting weak activity)"}, {"measurement": "HSDH 7a", "setting": "[2]; LC-MS", "value": "+ (‘+’ indicates greater than 50-fold increase in levels of product bile acid, suggesting strong activity)"}, {"measurement": "HSDH 12a", "setting": "[2]; LC-MS, 12a-HSDH", "value": "−"}]}, {"substance": "Clostridium_glycolicum", "values": [{"measurement": "BSH gCA", "setting": "[3]", "value": "+ (‘+’ indicates greater than 50-fold increase in levels of product bile acid, suggesting strong activity)"}, {"measurement": "BSH gCDCA", "setting": "[3]", "value": "+ (‘+’ indicates greater than 50-fold increase in levels of product bile acid, suggesting strong activity)"}, {"measurement": "BSH t-aMCA", "setting": "[3]", "value": "+ (‘+’ indicates greater than 50-fold increase in levels of product bile acid, suggesting strong activity)"}, {"measurement": "BSH t-bMCA", "setting": "[3]", "value": "+ (‘+’ indicates greater than 50-fold increase in levels of product bile acid, suggesting strong activity)"}, {"measurement": "BSH tCA", "setting": "[3]", "value": "+ (‘+’ indicates greater than 50-fold increase in levels of product bile acid, suggesting strong activity)"}, {"measurement": "BSH tCDCA", "setting": "[3]", "value": "+ (‘+’ indicates greater than 50-fold increase in levels of product bile acid, suggesting strong activity)"}]}, {"substance": "Clostridium_sordellii", "values": [{"measurement": "BSH gCA", "setting": "[3]", "value": "+ (‘+’ indicates greater than 50-fold increase in levels of product bile acid, suggesting strong activity)"}, {"measurement": "BSH gCDCA", "setting": "[3]", "value": "+ (‘+’ indicates greater than 50-fold increase in levels of product bile acid, suggesting strong activity)"}, {"measurement": "BSH t-aMCA", "setting": "[3]", "value": "+ (‘+’ indicates greater than 50-fold increase in levels of product bile acid, suggesting strong activity)"}, {"measurement": "BSH t-bMCA", "setting": "[3]", "value": "+ (‘+’ indicates greater than 50-fold increase in levels of product bile acid, suggesting strong activity)"}, {"measurement": "BSH tCA", "setting": "[3]", "value": "+ (‘+’ indicates greater than 50-fold increase in levels of product bile acid, suggesting strong activity)"}, {"measurement": "BSH tCDCA", "setting": "[3]", "value": "+ (‘+’ indicates greater than 50-fold increase in levels of product bile acid, suggesting strong activity)"}, {"measurement": "7a Dehydrox CDCA", "setting": "[1]; [4]", "value": "−"}, {"measurement": "7a Dehydrox CA", "setting": "[1]; LC-MS, substrate cholic acid", "value": "−"}, {"measurement": "HSDH 3a", "setting": "[2]; LC-MS, 3a-HSDH", "value": "+/− (‘+/−’ indicates ≤50-fold change in product bile acid levels, suggesting weak activity)"}, {"measurement": "HSDH 7a", "setting": "[2]; LC-MS", "value": "−"}, {"measurement": "HSDH 12a", "setting": "[2]; LC-MS, 12a-HSDH", "value": "−"}]}]}
